Experimental data as given in ChEMBL document CHEMBL4507268 (2021).

Assays:
Details in all cases: Compound concentration 1.0 uM
[1] = target: Cyclin-dependent kinase 5/CDK5 activator 1 (Homo sapiens) (UniProt Q00535+Q15078)
[2] = target: T1, Serine/threonine-protein kinase Chk1 (Homo sapiens) (UniProt O14757)
T1 sequence (whole entry): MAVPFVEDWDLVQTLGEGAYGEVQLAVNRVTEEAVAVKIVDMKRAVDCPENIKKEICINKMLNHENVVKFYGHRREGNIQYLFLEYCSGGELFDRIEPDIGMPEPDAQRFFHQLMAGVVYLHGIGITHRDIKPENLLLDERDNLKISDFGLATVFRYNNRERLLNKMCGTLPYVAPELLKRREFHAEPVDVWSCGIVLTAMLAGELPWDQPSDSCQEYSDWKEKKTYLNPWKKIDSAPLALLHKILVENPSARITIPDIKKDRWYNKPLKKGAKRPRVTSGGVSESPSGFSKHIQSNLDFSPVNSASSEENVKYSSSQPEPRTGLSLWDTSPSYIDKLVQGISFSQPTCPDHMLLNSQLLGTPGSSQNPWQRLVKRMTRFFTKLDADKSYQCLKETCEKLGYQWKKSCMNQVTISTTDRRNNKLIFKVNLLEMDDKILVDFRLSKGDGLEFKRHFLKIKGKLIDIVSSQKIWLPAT

[3] = target: Ephrin type-A receptor 7 (Homo sapiens) (UniProt Q15375)
[4] = target: T2, Inhibitor of nuclear factor kappa-B kinase subunit beta (Homo sapiens) (UniProt O14920)
T2 sequence (whole entry): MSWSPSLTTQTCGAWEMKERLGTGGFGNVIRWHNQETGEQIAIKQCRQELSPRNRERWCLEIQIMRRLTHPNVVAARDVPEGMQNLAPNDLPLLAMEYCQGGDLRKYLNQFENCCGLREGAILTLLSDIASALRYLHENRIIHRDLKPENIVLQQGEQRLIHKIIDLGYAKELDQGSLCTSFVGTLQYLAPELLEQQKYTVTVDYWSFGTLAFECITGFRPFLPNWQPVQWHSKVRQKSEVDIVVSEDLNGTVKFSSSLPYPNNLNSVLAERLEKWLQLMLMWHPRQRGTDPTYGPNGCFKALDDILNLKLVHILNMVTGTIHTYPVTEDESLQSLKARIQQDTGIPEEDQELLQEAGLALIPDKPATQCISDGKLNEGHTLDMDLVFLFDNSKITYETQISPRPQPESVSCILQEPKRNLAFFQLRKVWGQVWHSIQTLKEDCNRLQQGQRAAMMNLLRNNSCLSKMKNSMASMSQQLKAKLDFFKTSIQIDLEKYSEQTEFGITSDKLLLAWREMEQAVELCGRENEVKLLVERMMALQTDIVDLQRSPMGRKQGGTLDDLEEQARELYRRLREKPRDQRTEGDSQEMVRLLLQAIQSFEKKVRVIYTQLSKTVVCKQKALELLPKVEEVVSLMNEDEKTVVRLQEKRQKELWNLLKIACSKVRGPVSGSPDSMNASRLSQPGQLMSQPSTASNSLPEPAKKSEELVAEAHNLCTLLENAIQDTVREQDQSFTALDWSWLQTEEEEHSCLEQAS

[5] = target: Tyrosine-protein kinase JAK2 (Homo sapiens) (UniProt O60674)
Chain of Tyrosine-protein kinase JAK2 (Homo sapiens) (O60674 whole entry): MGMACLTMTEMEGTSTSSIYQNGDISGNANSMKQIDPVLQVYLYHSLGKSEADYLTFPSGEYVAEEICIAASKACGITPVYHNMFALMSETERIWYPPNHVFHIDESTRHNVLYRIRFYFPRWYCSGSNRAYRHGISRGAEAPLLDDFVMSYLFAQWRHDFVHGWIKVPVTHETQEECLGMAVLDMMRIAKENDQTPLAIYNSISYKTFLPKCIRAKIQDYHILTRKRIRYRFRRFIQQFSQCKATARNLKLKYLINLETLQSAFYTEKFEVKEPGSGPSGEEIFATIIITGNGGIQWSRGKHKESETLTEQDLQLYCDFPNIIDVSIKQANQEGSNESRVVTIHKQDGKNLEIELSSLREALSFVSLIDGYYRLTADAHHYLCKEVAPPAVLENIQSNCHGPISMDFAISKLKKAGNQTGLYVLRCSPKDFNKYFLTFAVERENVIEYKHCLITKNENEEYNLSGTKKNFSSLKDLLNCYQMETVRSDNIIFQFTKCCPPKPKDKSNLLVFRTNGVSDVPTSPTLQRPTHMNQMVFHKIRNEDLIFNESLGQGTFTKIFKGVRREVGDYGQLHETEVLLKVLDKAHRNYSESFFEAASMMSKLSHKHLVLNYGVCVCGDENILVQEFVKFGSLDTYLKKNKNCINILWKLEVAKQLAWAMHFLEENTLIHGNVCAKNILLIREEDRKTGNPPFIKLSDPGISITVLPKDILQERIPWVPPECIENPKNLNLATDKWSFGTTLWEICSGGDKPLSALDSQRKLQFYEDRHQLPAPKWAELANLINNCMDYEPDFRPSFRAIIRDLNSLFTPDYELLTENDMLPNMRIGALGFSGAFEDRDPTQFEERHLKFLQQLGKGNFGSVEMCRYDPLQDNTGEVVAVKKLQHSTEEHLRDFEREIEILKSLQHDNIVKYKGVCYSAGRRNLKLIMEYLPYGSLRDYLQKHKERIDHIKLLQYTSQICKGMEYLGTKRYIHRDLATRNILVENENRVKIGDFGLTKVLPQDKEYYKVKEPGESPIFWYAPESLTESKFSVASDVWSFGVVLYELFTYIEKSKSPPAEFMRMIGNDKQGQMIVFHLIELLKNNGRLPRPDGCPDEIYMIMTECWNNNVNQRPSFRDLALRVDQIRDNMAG

[6] = target: Ribosomal protein S6 kinase alpha-4 (Homo sapiens) (UniProt O75676)
Chain of Ribosomal protein S6 kinase alpha-4 (Homo sapiens) (O75676 whole entry, looked up): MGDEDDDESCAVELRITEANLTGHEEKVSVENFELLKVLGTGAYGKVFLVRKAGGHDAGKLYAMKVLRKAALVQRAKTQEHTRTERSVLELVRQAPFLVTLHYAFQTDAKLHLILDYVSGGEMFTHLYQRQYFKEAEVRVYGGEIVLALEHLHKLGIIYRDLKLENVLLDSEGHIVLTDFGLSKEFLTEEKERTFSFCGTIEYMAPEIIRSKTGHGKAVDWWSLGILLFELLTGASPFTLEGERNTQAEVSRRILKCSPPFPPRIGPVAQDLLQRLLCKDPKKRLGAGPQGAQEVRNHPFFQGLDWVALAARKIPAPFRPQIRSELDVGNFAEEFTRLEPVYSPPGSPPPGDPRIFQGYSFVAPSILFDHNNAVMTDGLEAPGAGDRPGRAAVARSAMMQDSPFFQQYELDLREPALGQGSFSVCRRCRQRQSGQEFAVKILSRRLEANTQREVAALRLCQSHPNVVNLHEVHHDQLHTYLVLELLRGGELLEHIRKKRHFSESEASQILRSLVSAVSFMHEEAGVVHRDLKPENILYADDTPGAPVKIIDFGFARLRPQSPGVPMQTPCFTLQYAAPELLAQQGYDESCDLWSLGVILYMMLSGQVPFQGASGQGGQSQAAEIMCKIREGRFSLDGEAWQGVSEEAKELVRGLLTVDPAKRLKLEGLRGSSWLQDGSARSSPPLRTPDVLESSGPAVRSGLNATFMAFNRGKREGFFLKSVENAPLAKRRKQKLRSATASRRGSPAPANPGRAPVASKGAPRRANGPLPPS

[7] = target: T3, Serine/threonine-protein kinase Nek2 (Homo sapiens) (UniProt P51955)
T3 sequence (whole entry): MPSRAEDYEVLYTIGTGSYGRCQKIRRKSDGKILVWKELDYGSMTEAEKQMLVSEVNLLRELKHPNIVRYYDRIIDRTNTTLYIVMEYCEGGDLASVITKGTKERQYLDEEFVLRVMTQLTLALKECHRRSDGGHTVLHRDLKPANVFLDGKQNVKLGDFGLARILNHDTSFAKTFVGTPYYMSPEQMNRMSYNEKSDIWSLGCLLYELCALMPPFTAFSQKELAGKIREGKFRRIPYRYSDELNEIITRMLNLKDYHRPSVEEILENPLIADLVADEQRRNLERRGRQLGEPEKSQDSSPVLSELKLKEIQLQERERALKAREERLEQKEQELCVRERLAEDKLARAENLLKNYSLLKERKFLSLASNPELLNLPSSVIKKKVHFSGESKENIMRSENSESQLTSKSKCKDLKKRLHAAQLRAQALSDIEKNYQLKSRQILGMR

[8] = target: Tyrosine-protein kinase FRK (Homo sapiens) (UniProt P42685)
Chain of Tyrosine-protein kinase FRK (Homo sapiens) (P42685 whole entry): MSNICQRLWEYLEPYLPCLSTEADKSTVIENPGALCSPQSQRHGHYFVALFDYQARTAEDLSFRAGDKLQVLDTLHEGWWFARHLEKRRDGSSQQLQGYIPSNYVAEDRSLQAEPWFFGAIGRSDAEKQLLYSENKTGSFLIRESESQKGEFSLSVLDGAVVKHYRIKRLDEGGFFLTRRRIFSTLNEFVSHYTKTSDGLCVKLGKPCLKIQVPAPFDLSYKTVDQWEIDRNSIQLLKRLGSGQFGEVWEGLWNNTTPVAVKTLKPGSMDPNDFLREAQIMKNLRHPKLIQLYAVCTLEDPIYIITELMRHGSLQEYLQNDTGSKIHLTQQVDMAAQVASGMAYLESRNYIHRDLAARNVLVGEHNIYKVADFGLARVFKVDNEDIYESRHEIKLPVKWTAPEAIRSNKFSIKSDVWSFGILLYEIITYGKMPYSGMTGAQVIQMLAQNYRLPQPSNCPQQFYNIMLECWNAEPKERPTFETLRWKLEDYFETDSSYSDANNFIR

[9] = target: Rho-associated protein kinase 2 (Homo sapiens) (UniProt O75116)
Chain of Rho-associated protein kinase 2 (Homo sapiens) (O75116 whole entry, looked up): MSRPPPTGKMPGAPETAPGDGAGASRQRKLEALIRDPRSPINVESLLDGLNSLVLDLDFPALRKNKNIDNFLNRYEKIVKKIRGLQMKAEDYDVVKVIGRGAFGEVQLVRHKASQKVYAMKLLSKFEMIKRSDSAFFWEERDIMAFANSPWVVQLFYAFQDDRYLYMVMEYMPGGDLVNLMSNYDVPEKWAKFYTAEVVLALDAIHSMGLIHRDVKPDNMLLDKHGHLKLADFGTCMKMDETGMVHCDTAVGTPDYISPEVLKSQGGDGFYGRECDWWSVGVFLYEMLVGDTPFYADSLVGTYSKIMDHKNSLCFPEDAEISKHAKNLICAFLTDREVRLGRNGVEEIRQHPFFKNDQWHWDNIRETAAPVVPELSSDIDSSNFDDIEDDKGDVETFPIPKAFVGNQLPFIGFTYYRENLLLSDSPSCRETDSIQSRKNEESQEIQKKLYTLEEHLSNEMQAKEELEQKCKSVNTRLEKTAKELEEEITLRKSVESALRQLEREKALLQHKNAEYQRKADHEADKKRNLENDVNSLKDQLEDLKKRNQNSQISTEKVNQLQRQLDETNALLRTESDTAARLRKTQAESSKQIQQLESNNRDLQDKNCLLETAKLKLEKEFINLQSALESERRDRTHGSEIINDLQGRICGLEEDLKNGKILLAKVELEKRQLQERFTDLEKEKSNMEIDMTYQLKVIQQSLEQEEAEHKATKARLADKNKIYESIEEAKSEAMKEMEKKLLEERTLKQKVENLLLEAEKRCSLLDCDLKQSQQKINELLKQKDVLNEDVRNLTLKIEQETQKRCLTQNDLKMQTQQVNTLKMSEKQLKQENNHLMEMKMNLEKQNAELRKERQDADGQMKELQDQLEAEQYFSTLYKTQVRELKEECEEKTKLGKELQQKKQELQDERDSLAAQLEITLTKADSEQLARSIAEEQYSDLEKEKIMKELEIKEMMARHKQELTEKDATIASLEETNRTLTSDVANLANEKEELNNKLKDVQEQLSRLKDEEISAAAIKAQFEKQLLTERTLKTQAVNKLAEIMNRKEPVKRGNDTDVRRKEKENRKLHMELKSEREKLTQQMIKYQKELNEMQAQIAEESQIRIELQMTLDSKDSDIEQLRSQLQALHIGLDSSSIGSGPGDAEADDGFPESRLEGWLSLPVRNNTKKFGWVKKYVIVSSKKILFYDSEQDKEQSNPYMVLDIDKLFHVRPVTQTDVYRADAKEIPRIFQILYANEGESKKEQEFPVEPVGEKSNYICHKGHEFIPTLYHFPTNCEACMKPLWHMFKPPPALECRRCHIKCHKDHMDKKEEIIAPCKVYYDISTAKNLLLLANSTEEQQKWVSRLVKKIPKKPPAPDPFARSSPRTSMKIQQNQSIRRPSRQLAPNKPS

[10] = target: Ribosomal protein S6 kinase alpha-1 (Homo sapiens) (UniProt Q15418)
Chain of Ribosomal protein S6 kinase alpha-1 (Homo sapiens) (Q15418 whole entry): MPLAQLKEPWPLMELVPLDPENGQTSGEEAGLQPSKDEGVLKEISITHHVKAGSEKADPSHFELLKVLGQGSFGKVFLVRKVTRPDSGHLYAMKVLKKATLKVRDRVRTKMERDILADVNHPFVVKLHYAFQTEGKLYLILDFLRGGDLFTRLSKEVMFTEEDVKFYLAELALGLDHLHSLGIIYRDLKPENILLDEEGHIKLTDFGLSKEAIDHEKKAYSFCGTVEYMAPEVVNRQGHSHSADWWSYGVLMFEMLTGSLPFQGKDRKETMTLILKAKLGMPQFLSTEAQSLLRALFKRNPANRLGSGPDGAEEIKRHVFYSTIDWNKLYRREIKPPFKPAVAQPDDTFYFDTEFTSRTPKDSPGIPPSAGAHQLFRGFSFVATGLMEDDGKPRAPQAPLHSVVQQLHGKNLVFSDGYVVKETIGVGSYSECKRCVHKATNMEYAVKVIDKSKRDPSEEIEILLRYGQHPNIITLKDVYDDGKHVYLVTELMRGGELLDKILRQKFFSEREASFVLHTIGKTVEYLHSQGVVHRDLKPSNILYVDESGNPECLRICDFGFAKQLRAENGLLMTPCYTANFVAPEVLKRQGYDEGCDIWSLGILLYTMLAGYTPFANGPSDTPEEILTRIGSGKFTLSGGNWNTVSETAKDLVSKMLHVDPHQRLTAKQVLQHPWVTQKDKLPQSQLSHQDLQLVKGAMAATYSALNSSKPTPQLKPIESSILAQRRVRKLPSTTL

[11] = target: T4, Serine/threonine-protein kinase tousled-like 1 (Homo sapiens) (UniProt Q9UKI8)
T4 sequence (whole entry): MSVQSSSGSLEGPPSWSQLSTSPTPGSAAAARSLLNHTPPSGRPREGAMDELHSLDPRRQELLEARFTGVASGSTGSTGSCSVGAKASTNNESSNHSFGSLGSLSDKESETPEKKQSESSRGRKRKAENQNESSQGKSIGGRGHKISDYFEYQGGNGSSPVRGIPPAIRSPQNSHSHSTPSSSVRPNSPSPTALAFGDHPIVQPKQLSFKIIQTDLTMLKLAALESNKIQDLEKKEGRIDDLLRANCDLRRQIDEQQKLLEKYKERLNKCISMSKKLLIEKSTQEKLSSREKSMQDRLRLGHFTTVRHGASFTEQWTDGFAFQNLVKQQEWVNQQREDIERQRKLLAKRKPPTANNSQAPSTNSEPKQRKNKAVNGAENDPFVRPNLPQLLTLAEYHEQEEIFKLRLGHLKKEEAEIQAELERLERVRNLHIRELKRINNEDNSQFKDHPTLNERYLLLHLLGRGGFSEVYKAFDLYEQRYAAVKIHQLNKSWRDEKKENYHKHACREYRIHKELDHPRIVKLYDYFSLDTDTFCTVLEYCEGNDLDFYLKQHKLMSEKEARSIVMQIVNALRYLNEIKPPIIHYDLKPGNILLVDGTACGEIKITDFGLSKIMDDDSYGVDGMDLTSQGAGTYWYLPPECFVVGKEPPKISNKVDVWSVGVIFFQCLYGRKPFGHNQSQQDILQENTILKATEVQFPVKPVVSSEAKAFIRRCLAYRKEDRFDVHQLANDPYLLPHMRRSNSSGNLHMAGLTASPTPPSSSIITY

[12] = target: Serine-protein kinase ATM (Homo sapiens) (UniProt Q13315)

Measured: % residual kinase activity

Chain of Cyclin-dependent kinase 5/CDK5 activator 1 (Homo sapiens) (Q00535 whole entry): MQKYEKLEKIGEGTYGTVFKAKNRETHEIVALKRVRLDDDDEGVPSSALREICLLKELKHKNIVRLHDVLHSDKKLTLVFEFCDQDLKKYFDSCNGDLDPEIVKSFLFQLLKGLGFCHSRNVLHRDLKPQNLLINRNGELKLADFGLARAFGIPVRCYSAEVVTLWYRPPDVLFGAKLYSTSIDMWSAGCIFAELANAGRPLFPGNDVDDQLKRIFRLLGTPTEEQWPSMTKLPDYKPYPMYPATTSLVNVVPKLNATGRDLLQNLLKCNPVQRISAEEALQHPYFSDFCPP
Chain of Cyclin-dependent kinase 5/CDK5 activator 1 (Homo sapiens) (Q15078 99-307 partner limits assumed): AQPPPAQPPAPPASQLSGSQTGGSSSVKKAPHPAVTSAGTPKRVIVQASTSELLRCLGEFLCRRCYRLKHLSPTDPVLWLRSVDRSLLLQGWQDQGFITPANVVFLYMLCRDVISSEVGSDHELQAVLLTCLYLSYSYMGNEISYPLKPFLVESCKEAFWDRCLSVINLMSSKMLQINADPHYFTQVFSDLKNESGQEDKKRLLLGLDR

CN1CCN(c2cnc3c(C4CCN(C(=O)c5ccc(OC(F)(F)F)cc5N)CC4)ncnc3c2)CC1 [BAY-885]
inactive: [1] 106% | [2] 89% | [3] 92% | [4] 106% | [5] 100% | [6] 107% | [7] 111% | [8] 109% | [9] 91% | [10] 121% | [11] 106% | [12] 107%
